# Measurements published in US10633388B2, “Pyrazolopyrimidone derivatives and methods of use thereof” (Shanghai Hengrui Pharmaceutical Co., Ltd., priority 2013, dated 2020).
# Assays:
# [1] = women with endometriosis, 150 or 250 mg qd, vs leuprorelin depot 3.75 mg sc monthly or placebo; cited from earlier work
# monkey GnRHr = monkey GnRHr (Macaca fascicularis, UniProt A0A2K5WH82); assay: Monkey GnRHr inhibitory activity assay, Fluo-4 calcium signal in stably transfected CHO cells; assay type: cell-based; details: GnRH polypeptide stimulation, read-out: IC50, inhibition of the activity of Monkey GnRHr
# monkey GnRHr, sequence (A0A2K5WH82 1-328): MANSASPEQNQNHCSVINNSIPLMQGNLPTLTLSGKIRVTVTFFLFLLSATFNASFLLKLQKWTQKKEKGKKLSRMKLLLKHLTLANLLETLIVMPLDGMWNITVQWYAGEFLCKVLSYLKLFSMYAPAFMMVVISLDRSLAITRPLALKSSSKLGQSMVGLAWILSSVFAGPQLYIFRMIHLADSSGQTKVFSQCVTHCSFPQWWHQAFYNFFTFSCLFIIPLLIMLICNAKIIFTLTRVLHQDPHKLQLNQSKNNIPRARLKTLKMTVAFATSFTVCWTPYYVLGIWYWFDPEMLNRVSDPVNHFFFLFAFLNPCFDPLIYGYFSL
# Experimental: This assay was used to determine the inhibition effect of the present compounds on the activity of monkey GnRHr protein expressed by monkey GnRHr/CHO stably transfected cell lines.
# A mammalian expression vector containing the monkey GnRHr gene was transferred into CHO cells by adding Lipofectamine®LTX reagent containing Plus™. Antibiotics were added the next day for screening to pick out the monoclonal cell lines.
# The monkey GnRHr/CHO stably transfected cell lines were inoculated in 96-well plates with an inoculation density of 25,000 cells/well. The culture medium was removed the next day, and loading buffer containing Fluo-4 dye was added to the plate ([…]) and incubated for 30 minutes at 37° C. The plate was moved to room temperature and equilibrated for 10 minutes. Each compound was diluted with DMSO to seven concentration gradients of 100 μM, 10 μM, 1 μM, 0.1 μM, 0.01 μM, 0.001 μM, 0.0001 μM. […] After automated addition of 50 μL of GnRH polypeptide stimulant solution, the value was immediately detected at 494/516 […] by a microplate reader (flexstation 3). IC50 values of the compounds were calculated by software from different fluorescence signals at various corresponding concentrations.
# The inhibitory activity of the present compounds on monkey GnRHr was determined by the above assay, and IC50 values are shown in Table 1.
# [2] = Rabbit pharmacokinetics assay; assay type: in vivo, New Zealand rabbits; details: rabbits
# Experimental: (§1) Rabbits were used as test animals. The plasma concentrations at various times were determined by LC/MS/MS after intragastric administration of the compound of Example 11, and intravenous administration of the compound of Example 11 to rabbits. The pharmacokinetic behavior of the present compound in rabbits was studied, and the pharmacokinetic features were evaluated.
# Six (6) healthy New Zealand Rabbits (female) were evenly designated into 2 groups. The animals were purchased from Jie Sijie Corp. Ltd.
# An appropriate amount of sample was weighed, and added with 0.5% CMC-Na to form […] suspension upon ultrasonic treatment.
# Appropriate amounts of drugs were weighed, and dissolved with 1 ml DMSO and 1 ml of Tween 80. Saline solution was added to the final volume. […]
# 0.2 ml of blood was sampled before and 5 minutes, 0.25, 0.5, 1, 2, 4, 8, 11, 24 hours after intravenous administration, collected in a heparinized test tube, and centrifuged at 3500 rpm for 10 minutes to separate the plasma, which was stored at −20° C. […] The content of the test compound in the plasma of rabbits after administration of the compound by oral gavage and intravenous injection was determined by LC/MS/MS.
# [3] = Beagle pharmacokinetics assay; assay type: in vivo; details: beagles
# Experimental: as §1, with “Beagles” for “Rabbits”, “beagles.” for “rabbits.”, “beagles” for “rabbits”
# Eight (8) healthy beagles (half female and half male) were evenly designated into 2 groups. The animals were purchased from SuzhouXishan Zhongke Laboratory Animal Corp. Ltd.
# An appropriate amount of sample was weighed, and added with 0.5% CMC-Na to form a 1.0 mg/ml suspension upon ultrasonic treatment;
# Appropriate amounts of drugs were weighed, and dissolved with 5 ml DMSO and 5 ml of Tween 80. Saline solution was added to the final volume. […]
# 1.0 ml of blood was sampled from the foreleg vein before, and 0.25, 0.5, 1, 2, 4, 6, 8, 12, and 24 hours after oral administration, collected in a heparinized test tube, and centrifuged at 3500 rpm for 10 minutes to separate the plasma, which was stored at −20° C. […] The content of the test compound in the plasma of beagles after administration of the compound by oral gavage and intravenous injection was determined by LC/MS/MS.
# [4] = Seven-day toxicokinetic evaluation in rats; assay type: in vivo, SD rats
# Experimental: SD rats were used as test animals. The plasma concentration at various times was determined by LC/MS/MS after administration of the compound of Example 11 (SHR147280) by oral gavage for 7 days. The compound toxicity in rodents was preliminarily assessed according to the potential toxicity reaction and severity level of the body.
# Twenty-four (24) healthy adult SD rats (half female and half male) were evenly designated into 4 groups (6 for each group). The animals were purchased from Shanghai SLAC Laboratory Animal Corp. Ltd (laboratory animal production Certificate No. SCXK (HU) 2012-0002).
# An appropriate amount of sample was accurately weighed, and added with some 0.5% CMC-Na to form an uniform suspension upon ultrasonicator grinding treatment, and then diluted to the final volume. The test sample solutions on day 1 and day 7 were kept for the determination of administration concentration of toxicokinetics.
# Repeat oral doses were 80, 240, and 720 mg/kg, and administration concentrations were 8, 24, and 72 mg/ml respectively. The dosing volume was 10 ml/kg once daily for 7 days.
# The blood was sampled on day 1 and day 7 after administration with sampling time before, and 1, 2, 4, 8 and 24 hours after oral administration on day 1, as well as before, and 1, 2, 4, 8, 24 and 48 hours after oral administration on day 7. The blood sample was collected in a heparinized test tube, and centrifuged to separate the plasma, which was stored at −20° C. The content of the test compound in the plasma of rats after administration of the compound by oral gavage was determined by LC/MS/MS.
# ectopic endometrium = assay: In vivo pharmacodynamics test in rabbit endometriosis model; set-up: species or system New Zealand rabbits
# From the text: Fifteen (15) healthy New Zealand rabbits (female) were evenly designated into 3 groups.
# Rabbits were adaptive fed and quarantined for seven days, and subcutaneously injected with 30 g/kg of estradiol benzoate once daily for two days before surgery. When the model was established, rabbits were anesthetized with 3% sodium pentobarbital, and laparotomized sterilely. Then, one side of the uterus was separated and ligated with the uterine mesorectum vessel. Then, a section of the uterus was cut off and put into a warm saline dish, and then dissected longitudinally and the myometrium and endometrium were separated. A section of endometrium (about 0.5 cm by 0.5 cm) was seamed to the abdominal wall rich in blood vessels with the intimal surface facing toward the abdominal cavity. Three weeks after endometrium planting, the rabbits were laparotomized to check graft intimal size. […] Each group was administered by oral gavage once a day in a volume of 5 ml/kg, continuously for 28 days after successful modeling. Ultimately, the rabbit was weighed and the volume of ectopic endometrium was measured to evaluate the effect of the present compound on the endometrial activity.
# [5] = Rat pharmacokinetics assay; assay type: in vivo; details: both sexes, Sprague-Dawley, plasma, SD rats, oral 10 mg/kg vs i.v. 5 mg/kg, read-out: Oral Bioavailability F
# Experimental: Sprague-Dawley (SD) rats were used as test animals. The plasma concentrations at various times were determined by LC/MS/MS after intragastric administration of compounds of Example 2, Example 3, Example 5, Example 9, Example 10, Example 11, and Example 13, and intravenous administration of the compound of Example 11 to the rats. The pharmacokinetic behavior of the present compounds in rats was studied, and the pharmacokinetic features were evaluated.
# Thirty-two (32) healthy adult SD rats (half female and half male) were evenly designated into 8 groups (4 for each group). The animals were purchased from Shanghai Super B&K Laboratory Animal Corp. Ltd (laboratory animal production Certificate No. SCXK (HU)2008-0016).
# An appropriate amount of sample was weighed, and added with 0.5% CMC-Na to form a 1 mg/ml suspension upon ultrasonic treatment.
# Appropriate amounts of drugs were weighed, and dissolved with 0.5 ml DMSO and 0.5 ml of Tween 80. Saline solution was added to the final volume. […]
# The content of the test compound in the plasma of rats after administration of the compound by oral gavage was determined by LC/MS/MS.
structure (smiles),measurement,setting,value
"COc1cccc(-c2c(C)n(Cc3c(F)cccc3C(F)(F)F)c(=O)n(C[C@H](NCCCC(=O)O)c3ccccc3)c2=O)c1F [elagolix, Elagolix]",serum estrogen level,[1],lower than that of the leuprorelin treatment group and placebo group
"CNC(=O)Nc1ccc(-n2nc3c(c2CN(C)C)c(=O)n(-c2ccc(OC)nn2)c(=O)n3Cc2c(F)cccc2F)cc1 [Example 9, 1-(4-(7-(2,6-difluorobenzyl)-3-((dimethylamino)methyl)-5-(6-methoxypyridazin-3-yl)-4,6-dioxo-4,5,6,7-tetrahydro-2H-pyrazolo[3,4-d]pyrimidin-2-yl)phenyl)-3-methylurea]",IC50,monkey GnRHr,23.2 nM
"CONC(=O)Nc1ccc(-n2nc3c(c2CN(C)C)c(=O)n(-c2ccc(OC)nn2)c(=O)n3Cc2c(F)cccc2F)cc1 [Example 11, 1-(4-(7-(2,6-difluorobenzyl)-3-((dimethylamino)methyl)-5-(6-methoxypyridazin-3-yl)-4,6-dioxo-4,5,6,7-tetrahydro-2H-pyrazolo[3,4-d]pyrimidin-2-yl)phenyl)-3-methoxyurea]",bioavailability,"[2]; female, New Zealand, rabbit, plasma, oral 30 mg/kg vs intravenous injection 5 mg/kg, read-out: Oral Bioavailability F",92.9%
same,Apparent volume of distribution Vz/F,[2]; oral 30 mg/kg,10.719 ± 3.862 L/kg
same,IC50,monkey GnRHr,78.6 nM
same,Clearance rate CL/F,[3]; oral 5 mg/kg,14.7 ± 4.2 mL/min/kg
same,bioavailability,"[3]; both sexes, beagle, dog, plasma, oral 5 mg/kg vs i.v. 2 mg/kg, read-out: Oral Bioavailability F",104%
same,Death,"[4]; both, SD, rat, in vivo, po, 720 mg/kg, 7 days",died on day 7 before dosing
same,lethal dose,"[4]; both, SD, rat, in vivo, po, 7 days",720 mg/kg
same,MRT0-∞,"[4]; female, SD, rat, in vivo, po, 240 mg/kg",9.63 h
same,safety window: NOAEL dose ratio (toxicological pharmacokinetic dose/pharmacodynamic dose),"[4]; rat 240 mg/kg / rabbit 30 mg/kg, preliminary evaluation",240/30 = 8
same,urine indexes,"[4]; rat, in vivo",no regularly abnormal changes
same,Blood biochemistry: ALB (albumin) and ALP (alkaline phosphatase),"[4]; rat, in vivo, 720 mg/kg",significantly decreased
same,Blood biochemistry: ALT (alanine aminotransferase),"[4]; rat, in vivo, 720 mg/kg",no statistical differences
same,"Blood biochemistry: BUN, CHOL, CREA, TBIL, TP and AST","[4]; rat, in vivo, 720 mg/kg",significantly increased
same,"Hematology: WBC, Neut, Lymph, EO and RET","[4]; rat, in vivo, 720 mg/kg",significantly decreased
same,Relative organ coefficient of the thymus and spleen,"[4]; rat, in vivo, 720 mg/kg",significantly reduced
same,absolute wet weight of the adrenal gland,"[4]; rat, in vivo, 720 mg/kg",significantly increased
same,"absolute wet weight of the thymus, heart, lung and spleen","[4]; rat, in vivo, 720 mg/kg",significantly decreased
same,food intake,"[4]; rat, in vivo, 720 mg/kg",significantly reduced
same,"relative organ coefficient of the brain, liver, lung, kidney, and adrenal gland","[4]; rat, in vivo, 720 mg/kg",significantly increased
same,potential toxic target organs,"[4]; rat, in vivo, po","marrow hematopoietic system, thymus, heart, liver, lung, spleen, adrenal gland, ovary, and digestion system"
same,inhibition for the ectopic endometrial volume,ectopic endometrium; 10 mg/kg oral once daily for 4 weeks,not obvious
same,growth of ectopic endometrium,"ectopic endometrium; 30 mg/kg oral once daily for 4 weeks, vs 0.5% CMC-Na control",significantly inhibited
same,bioavailability,[5],76.6%
